Marks after values point to notes of the source that are not given here.
How the values were obtained:
NF-κB [1] = test: TNF-α-induced NF-κB-dependent luciferase expression in HEK cells; format: cell-based; parameters: NF-κB % inhibition: concentration or dose not given beside the values; settings: TNF-α-induced; compound added 1 h before inducer, luciferase 24 h later; normalized to DMSO vehicle
AP-1 [2] = test: PMA-induced AP-1 luciferase expression in HEK cells; format: cell-based; settings: PMA-induced; compound added 1 h before inducer, luciferase 24 h later; normalized to DMSO vehicle
[3] = test system: Human umbilical vein endothelial cells (HUVEC); test: Trypan blue viability count in HUVEC; format: cell-based; settings: HUVEC, 10 μM, 48 h, relative to vehicle
Procedure: (§1) Additional compounds have also been tested for their ability to inhibit both TNF-α-induced NF-κB—expression and PMA-induced AP-1 expression. In both tests, the compound was added for 1 h, then the appropriate inducer was added, and luciferase activity was monitored 24 h later. Values were then normalized to the vehicle control, DMSO. Following the initial luciferase screens, studies were conducted to assess the cytotoxicity of the compounds in normal cells such as VSMC, HUVEC, or HPT cells. Human umbilical vein endothelial cells (HUVEC) represent the normal endothelium, vascular smooth muscle cells (VSMC) were represented by cells from the adult rat aorta, and human proximal tubule (HPT) cells represent the normal proximal tubule in vivo. These cells were grown to near confluency in multi-well plates, and were then treated for 48 h with either vehicle (0.1% DMSO) or 10 μM of each drug candidate. Following treatment, the media from the VSMC and HUVEC incubations were removed, and the amount of lactate dehydrogenase (LDH) released into the medium was determined with a commercial kit. LDH is normally confined to the cytosol, and its release represents “leakiness” of the plasma membrane. LDH activity was expressed as % increase over vehicle-treated cells. In another assay of viability, the treated VSMC and HUVEC were removed by trypsinization and treated with trypan blue, a dye that is taken up only by dead cells. The number of both live and dead cells was counted using an automated cell viability analyzer. The % decrease in numbers of viable cells was determined. Toxicity in the treated HPT cells was determined by the ethidium homodimer (EthHD) uptake assay. EthHD is a fluorescent dye that is excluded from live cells, but is taken up by cells that have lost permeability barriers. Inside the cell, EthHD produces a strong fluorescent signal, which is proportional to the number of dead cells. Results were expressed as a % increase in cell death over vehicle-treated cells. The lead compounds were also tested in two pairs of cell lines from either the skin or prostate, one tumorigenic and one non-tumorigenic, to test for any differences in toxicity or heightened sensitivity in the tumorigenic lines. The cells were treated for 48 h with vehicle (0.1% DMSO) or 10 μM of each drug candidate. Following treatment, the viability of the cells was determined by the MTT assay. In this assay, the MTT dye is converted only in viable cells by intracellular enzymes to a colorimetric product that is quantitated by a microplate reader.

[4] = test system: human proximal tubule (HPT) cells; test: Ethidium homodimer (EthHD) uptake toxicity assay in HPT cells; format: cell-based; settings: 10 μM, 48 h, relative to vehicle
Procedure: as §1
(§2) For the results in Table 13, cells were grown to near confluency in multi-well plates, then treated for 48 h with either vehicle (0.1% DMSO) or 10 μM of each drug candidate. Following treatment, the media from the VSMC and HUVEC incubations were removed, and the amount of lactate dehydrogenase (LDH) released into the medium was determined with a commercial kit and expressed as a % increase over vehicle-treated cells. HPT toxicity was determined by the ethidium homodimer (EthHD) uptake assay. Inside the cell, EthHD produces a strong fluorescent signal, which is proportional to the amount of cell death, expressed as a % increase in cell death over vehicle-treated cells. The lead compounds were also tested in two pairs of cell lines from the skin or prostate, one tumorigenic and one non-tumorigenic, to test for differing toxicity or heightened sensitivity in the tumorigenic lines. The cells were treated for 48 h with vehicle (0.1% DMSO) or 10 μM of each drug candidate, and the viability of the cells was determined by the MTT assay, expressed as a % decrease in viability compared to vehicle-treated cells. The in vivo inflammation model measured the % inhibition of rat paw edema induced by carageenan injection.

[5] = test system: Human umbilical vein endothelial cells (HUVEC); test: LDH release cytotoxicity in HUVEC; format: cell-based; settings: HUVEC, 10 μM, 48 h, relative to vehicle
Procedure: as §1, §2

[6] = test system: vascular smooth muscle cells (VSMC); test: LDH release cytotoxicity in VSMC; format: cell-based; settings: VSMC, 10 μM, 48 h, relative to vehicle
Procedure: as §1, §2

[7] = test system: cell lines from the skin, one tumorigenic and one non-tumorigenic; test: MTT viability in skin cell line pair, tumorigenic and non-tumorigenic; format: cell-based
Procedure: as §1, §2

[8] = test system: vascular smooth muscle cells (VSMC); test: Trypan blue viability count in VSMC; format: cell-based; settings: VSMC, 10 μM, 48 h, relative to vehicle
Procedure: as §1

AP-1 [9] = test: AP-1 inhibitor screen: basal AP-1-dependent luciferase expression in HEK/AP-1 cell line; format: cell-based; settings: AP1; 1 uM; determined as described in Example 398
Procedure, shortened: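 Compound effects on unstimulated reporter signal were tested: 1.0 μM compound (0.3% DMSO) for 48 hr on HEK cells bearing an AP-1 (TGACTAA ×3)-luciferase construct, seeded 24 hr earlier. Triplicate luminescence means were normalized to DMSO-only wells; dose-response experiments were repeated 2–4 times.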

NF-κB [10] = test: NF-κB inhibitor screen: basal NF-κB-dependent luciferase expression in HEK/NF-κB cell line; format: cell-based; settings: 1 uM; determined as described in Example 398; read-out: NFkB inhibition @ 1 uM
Procedure, shortened: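 Basal NF-κB-driven luciferase (six-copy element, stable HEK293 line) was read with Brite-Glo. Compound was added in 0.3% DMSO 24 h post-plating, initially at 1.0 μM and then across 10–3300 nM in six steps, in triplicate wells. Signals were expressed relative to DMSO or to the lowest concentration tested.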

| SMILES | NF-κB % inhibition (NF-κB [1]) | AP-1 % inhibition (AP-1 [2]) | Viable Cells % Decrease HUVEC [3] | Cell Death (EthHD) % Increase HPT [4] | LDH release % Increase HUVEC [5] | LDH release % Increase VSMC [6] | Viability (MTT) % Decrease HaCaT [7] | Viability (MTT) % Decrease SRB12-p9 [7] | Viable Cells % Decrease VSMC [8] | inhibition at 1 µM (AP-1 [9]) [%] | melting point [°C] | inhibition at 1 µM (NF-κB [10]) [%] |
| --- | --- | --- | --- | --- | --- | --- | --- | --- | --- | --- | --- | --- |
| Cc1ccccc1-n1c(-c2sc(Nc3ccccc3)nc2C)nc2ccccc2c1=O [PMCR20] | 21% | 73** % | 28# % | 109# % | 17% | 9% | 6% | 14% | 34# % |  |  |  |
| CNc1nc(-c2ccccc2)c(-c2nc3ccccc3c(=O)n2-c2ccccc2OC)s1 [PMCR75] | 61** % | 90** % | 41# % | 4% | 15% | 31# % | 46# % | 61# % | 70# % |  |  |  |
| COc1ccccc1-n1c(-c2cc(-c3ccc(S(C)(=O)=O)cc3)c(N3CCOCC3)s2)nc2ccccc2c1=O [PMCR204] | 55** % | 33% | 65# % | 207# % | 214# % | 164# % | −8% | 12% | 70# % |  |  |  |
| COc1ccccc1-n1c(-c2cc(-c3ccncc3)c(N3CCOCC3)s2)nc2ccccc2c1=O [PMCR206] | 31% | 33% | 12% | 147# % | −1% | 0% | 11% | 30# % | 0% |  |  |  |
| O=c1c2ccccc2nc(-c2cc(-c3ccncc3)c(N3CCOCC3)s2)n1-c1ccc(Cl)cc1 [PMCR236] | 68** % | 32% | 60# % | 172# % | 39# % | 91# % | 6% | 19% | 94# % |  |  |  |
| CCOC(=O)Nc1nc(-c2ccccc2)c(-c2nc3ccccc3c(=O)n2-c2ccccc2C)s1 [PMCR25] | 23% | 52** % | 40# % | 34# % | 59# % | 78# % | −5% | 28# % | 56# % |  |  |  |
| Cc1ccc(C(=O)Nc2nc(-c3ccccc3)c(-c3nc4ccccc4c(=O)n3-c3ccc(Cl)cc3)s2)cc1 [Example 254, 4-Methyl-N-[5-(4-oxo-3-(4-Chloro-phenyl)-3,4-dihydroquinazolin-2-yl)-4-phenyl-thiazol-2-yl]-benzamide] |  |  |  |  |  |  |  |  |  | 2 | > 275 | 0 |
| COc1ccc(-n2c(-c3cc(-c4ccc(S(C)(=O)=O)cc4)c(N4CCOCC4)s3)nc3ccccc3c2=O)cc1 [PMCR216] | 60** % | 10% | −1% | 152# % | 0% | −10% | −21% | 16% | 6% |  |  |  |

Reference: patent publication US8829014B2, “Thiazole and thiophene analogues, and their use in treating autoimmune diseases and cancers” (Board of Supervisors of Louisiana State University and …, priority 2006, dated 2014)
